As usually defined, the IC50 is the concentration that gives 50% inhibition. A lower IC50 goes with higher potency.

Data set [1] in a line: Selectivity index, ratio of IC50 for human KB cells to IC50 for Plasmodium falciparum D6. The data set is classed as toxicity, cell-based. The following applies: read-out: Ratio IC50.
In data set [2] the test system is Plasmodium falciparum. The experiment in a line: microbe, parasite or virus in culture. The data set is classed as functional, organism-based. The following applies: W2.
Description: Antiplasmodial activity against Plasmodium falciparum W2
A short description of data set [3]: Selectivity index, ratio of IC50 for human KB cells to IC50 for Plasmodium falciparum W2. Conditions: read-out: Ratio IC50. The data set is classed as toxicity, cell-based.
Data set [4] has as its system Plasmodium falciparum. The experiment in a line: microbe, parasite or virus in culture. The data set is classed as functional, organism-based. The following applies: D6.
Description: Antiplasmodial activity against Plasmodium falciparum D6
Data set [5] relates to KB. The experiment in a line: cells. The data set is classed as ADME, cell-based. The following applies: Homo sapiens.
Description: Cytotoxicity against human KB cells

Values after ≈ are worked out from the molar mass of the structure shown.

Turning to `C=C1CC[C@H]2[C@H]3[C@H](CC[C@]2(C)N=C=S)[C@@H](C)C[C@H](C=C(C)C)[C@]13O`, the selectivity ratio is 6.6 in data set [1] and 12 in data set [3]. In addition, the IC50 stood at 0.423 µg/mL (≈ 1.22 µM) in data set [2], 0.797 µg/mL (≈ 2.31 µM) in data set [4] and 5.3 µg/mL (≈ 15.3 µM) in data set [5].

Consider `O=Cc1ccc(O)cc1` [4-HYDROXYBENZALDEHYDE], for which the values for the selectivity ratio in data set [1] and in data set [3] were more than 2.7 and more than 3.6, respectively. Also, the IC50 in data set [2] is 5.56 µg/mL (≈ 45.5 µM); in data set [4] it was 7.33 µg/mL (≈ 60 µM); in data set [5], more than 20 µg/mL.

On to `C=C1CC[C@H]2[C@H]3[C@H](CC[C@]2(C)C#N)[C@@H](C)C[C@@H](CC(C)(C)N=C=S)[C@H]13`, for which the figures for the selectivity ratio in data set [1] and in data set [3] were more than 42.6 and more than 183, respectively. Besides, the IC50 in data set [2] was 0.109 µg/mL (≈ 0.306 µM); in data set [4], 0.47 µg/mL (≈ 1.32 µM); in data set [5] it was more than 20 µg/mL.

For the molecule `[C-]#[N+][C@]1(C)[C@H](C)C[C@@H]2C[C@H](C)[C@H]3CC[C@](C)([N+]#[C-])[C@H]4CC[C@H]1[C@@H]2[C@H]34` [DIISOCYANOADOCIANE], the selectivity ratio in data set [1] is 1000; in data set [3] it was 1100. Further, the IC50 in data set [2] worked out at 0.0043 µg/mL (≈ 0.0133 µM); in data set [5], 4.7 µg/mL (≈ 14.5 µM).

Turning to `C=C1CC[C@H]2[C@H]3[C@H](CC[C@]2(C)C#N)[C@@H](C)C[C@H](C=C(C)C)[C@H]13`, the selectivity ratio was determined as 230 in data set [1] and 340 in data set [3]. The IC50 in data set [2] turned out to be 0.0093 µg/mL (≈ 0.0313 µM); in data set [4] it was 0.0141 µg/mL (≈ 0.0474 µM); in data set [5], 3.2 µg/mL (≈ 10.8 µM).

Turning to `C=C[C@H]1CN2CC[C@H]1C[C@H]2[C@H](O)c1ccnc2ccc(OC)cc12` [QUININE], the selectivity ratio in data set [1] is more than 1800; in data set [3], more than 370. Moreover, the IC50 in data set [2] was 0.0546 µg/mL (≈ 0.168 µM); in data set [5] it was more than 20 µg/mL.

For `CC(C)=CCC[C@@H](C)[C@H]1CC[C@](C)(N=C=S)[C@H]2CCC(C)=C[C@H]12`, the IC50 in data set [2] was more than 10 µg/mL; in data set [4], more than 10 µg/mL; in data set [5], more than 20 µg/mL.

Turning to `C[C@@H]1C[C@@H]2C[C@H](C)[C@H]3CC[C@](C)(N=C=S)[C@H]4CC[C@@H]([C@@H]2[C@H]34)[C@]1(C)C#N`, the selectivity ratio in data set [1] is 35; in data set [3], 56. In addition, the IC50 was found to be 0.0285 µg/mL (≈ 0.0799 µM) in data set [2], 0.0451 µg/mL (≈ 0.126 µM) in data set [4] and 1.6 µg/mL (≈ 4.49 µM) in data set [5].

As for `C[C@H]1C[C@H]2CC(C)(C)CC3=CC[C@H]4[C@@H]([C@@H]1CC[C@]4(C)C#N)[C@@H]32`, the selectivity ratio is more than 240 in data set [1] and more than 700 in data set [3]. The IC50 is 0.0284 µg/mL (≈ 0.0955 µM) in data set [2], 0.0849 µg/mL (≈ 0.285 µM) in data set [4] and more than 20 µg/mL in data set [5].

Turning to `C=C(C)C1[C@@H]2C(C)CC[C@@H]2[C@@]2(C)CC[C@@H]12` (stereo partly drawn), the IC50 in data set [2] was more than 10 µg/mL; in data set [4] it was more than 10 µg/mL; in data set [5], more than 20 µg/mL.

Take `C=C(C)C[C@@H]1C[C@H](C)[C@H]2CC[C@](C)(C#N)[C@H]3CCC(=C)[C@@H]1[C@H]23`: the results for the selectivity ratio in data set [1] and in data set [3] were more than 38.5 and more than 82.6, respectively. The figures for the IC50 in data set [2], in data set [4] and in data set [5] were 0.242 µg/mL (≈ 0.813 µM), 0.52 µg/mL (≈ 1.75 µM) and more than 20 µg/mL, respectively.

In the case of `C=C(C)C1CC[C@@H]2[C@H]3CCC(C)[C@H]3[C@H]12` (stereo partly drawn), the IC50 in data set [2] is more than 10 µg/mL; in data set [4], more than 10 µg/mL; in data set [5], more than 20 µg/mL.

As for `CC(C)=C[C@H]1C[C@H](C)[C@H]2CC[C@](C)(C#N)[C@H]3CCC(C)=C1[C@H]23`, the selectivity ratio in data set [1] came to 260; in data set [3], 590. Also, the results for the IC50 in data set [2], in data set [4] and in data set [5] were 0.0256 µg/mL (≈ 0.0861 µM), 0.0585 µg/mL (≈ 0.197 µM) and 15.2 µg/mL (≈ 51.1 µM), respectively.

Turning to `C[C@@H]1CC[C@H]2[C@@H](C)C(=O)O[C@@H]3O[C@@]4(C)CC[C@@H]1[C@]32OO4` [ARTEMISININ], the IC50 in data set [2] was 0.0021 µg/mL (≈ 0.00744 µM); in data set [5] it was more than 20 µg/mL.

In the case of `COc1ccc(CO)cc1`, the IC50 in data set [2] is more than 10 µg/mL; in data set [4], more than 10 µg/mL; in data set [5] it was more than 20 µg/mL.

In the case of `OC(c1cc(C(F)(F)F)nc2c(C(F)(F)F)cccc12)C1CCCCN1` (stereo not drawn) [MEFLOQUINE], the selectivity ratio stood at 490 in data set [1] and 970 in data set [3].

Consider `C=C(C)/C=C/[C@]12C[C@H](C)[C@H]3CC[C@](C)(C#N)[C@@H](CC[C@H]1C)[C@@H]32`, for which the selectivity ratio in data set [1] was found to be 210; in data set [3], 640. In addition, the IC50 in data set [2] is 0.0297 µg/mL (≈ 0.0998 µM); in data set [4] it was 0.09 µg/mL (≈ 0.303 µM); in data set [5], 19.1 µg/mL (≈ 64.2 µM).

Consider `C=C(C)[C@@H]1C=C2C(C)CC[C@@H]2C(C)CC1` (stereo partly drawn), for which the figures for the IC50 in data set [2], in data set [4] and in data set [5] were 8.46 µg/mL (≈ 41.4 µM), more than 10 µg/mL and more than 20 µg/mL, respectively. In addition, the selectivity ratio in data set [3] was more than 2.3.

Consider `CC(C)=C[C@@H]1C[C@H](C)[C@H]2CC[C@](C)(C#N)[C@H]3CC=C(C)[C@@H]1[C@H]23`, for which the selectivity ratio was more than 66.2 in data set [1] and more than 150 in data set [3]. Further, the IC50 in data set [2] was 0.133 µg/mL (≈ 0.447 µM); in data set [4], 0.302 µg/mL (≈ 1.02 µM); in data set [5] it was more than 20 µg/mL.

`CC1=C[C@@H]2C[C@H](C)[C@H]3CC[C@](C)(C#N)[C@H]4CC[C@@H]([C@@H]2[C@H]34)[C@@H]1C`: the results for the selectivity ratio in data set [1] and in data set [3] were 290 and 930, respectively. Moreover, the IC50 was determined as 0.0195 µg/mL (≈ 0.0655 µM) in data set [2], 0.0625 µg/mL (≈ 0.21 µM) in data set [4] and 18.2 µg/mL (≈ 61.2 µM) in data set [5].

In the case of `C[C@@H]1C[C@@H]2C[C@H](C)[C@H]3CC[C@](C)(C#N)[C@H]4CC[C@@H]([C@@H]2[C@H]34)[C@]1(C)N=C=O`, the selectivity ratio amounted to 1340 in data set [1] and 1710 in data set [3]. In addition, the IC50 is 0.0025 µg/mL (≈ 0.00734 µM) in data set [2], 0.0032 µg/mL (≈ 0.0094 µM) in data set [4] and 4.3 µg/mL (≈ 12.6 µM) in data set [5].

Regarding `C[C@H]1C[C@H]2CC(C)(C)C=C3CC[C@H]4[C@@H]([C@@H]1CC[C@]4(C)C#N)[C@@H]32`, the selectivity ratio in data set [1] is 200; in data set [3], 610. For the same molecule, the half-maximal inhibitory concentration (IC50) was found to be 0.0238 µg/mL (≈ 0.08 µM) in data set [2], 0.0741 µg/mL (≈ 0.249 µM) in data set [4] and 14.5 µg/mL (≈ 48.7 µM) in data set [5].

`C[C@@H]1C[C@@H]2C[C@H](C)[C@H]3CC[C@](C)(N=C=O)[C@H]4CC[C@@H]([C@@H]2[C@H]34)[C@]1(C)C#N`: the selectivity ratio came out at 27 in data set [1] and 36 in data set [3]. In addition, the IC50 was determined as 0.0561 µg/mL (≈ 0.165 µM) in data set [2], 0.0749 µg/mL (≈ 0.22 µM) in data set [4] and 2 µg/mL (≈ 5.87 µM) in data set [5].

The record behind these values is ChEMBL document CHEMBL1158252, “Antimalarial activity: the search for marine-derived natural products with selective antimalarial activity” (J Nat Prod, 1996).
